The values below come from US10022442B2, “Pyrazolopyrimidine compounds” (GlaxoSmithKline LLC, priority 2012, dated 2018).

Where a name gives a salt, the structure may show the parent alone.

In experiment [1] the test system is Interferon-α. Nature of the experiment: Induction of Interferon-α using fresh human whole blood (WB). The class given is cell-based. The settings on record: three donors, overnight incubation, cytokine released as % of 2 μM resiquimod control, read-out: mean pEC50 for IFNα (converted). The procedure:
(§1) Assay for the Induction of Interferon-α and TNF-α using Fresh Human Whole Blood (WB)
(§2) Compounds were prepared at 100× required concentration in DMSO in flat-bottom microtitre plates at a volume of 1.5 μL. Columns 1-10 contained a 1 in 4 serial dilution of the test compound. Included on each plate was a serial dilution of the TLR7/8 agonist resiquimod as a standard and Column 11 contained 1.5 μl of 200 μM resiquimod (giving a 2 μM final concentration, used to define the approximate maximal response to resiquimod). Each compound was assayed in duplicate for each donor.
(§3) Incubation and Assays for Interferon-α and TNF-α
(§4) Blood samples from three human donors were collected into sodium heparin (10 U/ml). 150 μl of whole Blood was dispensed into Col 1 to 11 of assay plates containing 1.5 μl of test compound or standard in DMSO. Plates were placed in an incubator overnight (37° C., 95% air, 5% CO2). Following the overnight incubation, plates were removed from the incubator & mixed on an orbital shaker for approximately 1 minute. 100 μl of 0.9% saline was added to each well and the plates mixed again on an orbital shaker. Plates were then centrifuged (2500 rpm, 10 mins), after which a sample of plasma was removed using a Biomek FX and assayed for both IFN-α and TNF-α using the MSD (Mesoscale Discovery) electrochemiluminescence assay platform. The IFN-α assay was carried out similarly to that described above. The TNF-α assay was carried out as per kit instructions (Cat No K111BHB).
(§5) Cytokine released was expressed as a percentage of the 2 μM resiquimod control (column 11). This percentage was plotted against compound concentration and the pEC50 for the response determined by non-linear least squares curve fitting. For the IFN-α responses, generally a 4 parameter logistic model was selected. For the TNF responses where a clear maximum response was obtained (i.e. a well defined plateau in the response was observed) then a 4 parameter model was generally used. If the upper asymptote of the curve wasn't well defined then the curve fitting was generally constrained to a maximal response of 100% (i.e. to the response to 2 μM resiquimod) or to the response of the highest concentration tested if this was greater than the resiquimod response. Some curves were bell shaped for one or both cytokines and the cytokine data on the down slope of the bell shaped response (i.e. concentrations above those giving the maximal response) were generally excluded from the fit, usually with the exception of the concentration immediately above the peak response. Curve fitting thus concentrated on the up slope of the dose response curve.

The subject of experiment [2] is TNF-α. In words: Induction of TNF-α using fresh human whole blood (WB). The settings on record: three donors, overnight incubation, cytokine released as % of 2 μM resiquimod control, read-out: mean pEC50 for TNF-α (converted). In kind it is cell-based. The procedure:
as §1, §2, §3, §4, §5

On to `CCCCc1nc(N)c2[nH]nc(CCCCCCN3CCCCC3)c2n1` [Example 1, 5-Butyl-3-(6-(piperidin-1-yl)hexyl)-1H-pyrazolo[4,3-d]pyrimidin-7-amine formate], for which the EC50 in experiment [1] was not above 1260 nM; in experiment [2] it was not below 3980 nM.
The corresponding values for `COCCc1nc(N)c2[nH]nc(CCCCCCN3CCCCC3)c2n1` [Example 2, 5-(2-Methoxyethyl)-3-(6-(piperidin-1-yl)hexyl)-1H-pyrazolo[4,3-d]pyrimidin-7-amine] are not above 1260 nM and not below 3980 nM.
Regarding `COCCc1nc(N)c2[nH]nc(CCCCCCN3CCCC3)c2n1` [Example 4, 5-(2-Methoxyethyl)-3-(6-(pyrrolidin-1-yl)hexyl)-1H-pyrazolo[4,3-d]pyrimidin-7-amine], the EC50 in experiment [1] is not above 1260 nM; in experiment [2], not below 3980 nM.
As for `CCCCc1nc(N)c2[nH]nc(CCCCCN3CCCCC3)c2n1` [Example 5, 5-Butyl-3-(5-(piperidin-1-yl)pentyl)-1H-pyrazolo[4,3-d]pyrimidin-7-amine], the figures for the EC50 in experiment [1] and in experiment [2] were not above 1260 nM and not below 3980 nM, respectively.
With `CCCCc1nc(N)c2[nH]nc(CCCCCN3CCCC3)c2n1` [Example 6, 5-Butyl-3-(5-(pyrrolidin-1-yl)pentyl)-1H-pyrazolo[4,3-d]pyrimidin-7-amine], the EC50 in experiment [1] is not above 1260 nM; in experiment [2], not below 3980 nM.
For the molecule `CCCCc1nc(N)c2[nH]nc(CCCCCCCN3CCCCC3)c2n1` [Example 7, 5-Butyl-3-(7-(piperidin-1-yl)heptyl)-1H-pyrazolo[4,3-d]pyrimidin-7-amine], the results for the EC50 in experiment [1] and in experiment [2] were not above 1260 nM and not below 3980 nM, respectively.
On the same counts, the results for `CCCCc1nc(N)c2[nH]nc(CCCCCCCN3CCCC3)c2n1` [Example 8, 5-Butyl-3-(7-(pyrrolidin-1-yl)heptyl)-1H-pyrazolo[4,3-d]pyrimidin-7-amine] are not above 1260 nM and not below 3980 nM.
With `CCCCc1nc(N)c2[nH]nc(CCCCCCN3CCCCCC3)c2n1` [Example 9, 3-(6-(Azepan-1-yl)hexyl)-5-butyl-1H-pyrazolo[4,3-d]pyrimidin-7-amine], the EC50 in experiment [1] is not above 1260 nM; in experiment [2], not below 3980 nM.
The corresponding values for `CCCCc1nc(N)c2[nH]nc(CCCCCN3CCCCCC3)c2n1` [Example 10, 3-(5-(Azepan-1-yl)pentyl)-5-butyl-1H-pyrazolo[4,3-d]pyrimidin-7-amine] are not above 1260 nM and not below 3980 nM.
On to `CCCCc1nc(N)c2[nH]nc(CCCCCCN3CC[C@H](F)C3)c2n1` [Example 11, (S)-5-Butyl-3-(6-(3-fluoropyrrolidin-1-yl)hexyl)-1H-pyrazolo[4,3-d]pyrimidin-7-amine], for which the results for the EC50 in experiment [1] and in experiment [2] were not above 1260 nM and not below 3980 nM, respectively.
As for `CCCCc1nc(N)c2[nH]nc(CCCCCN3CC[C@H](F)C3)c2n1` [Example 12, (S)-5-Butyl-3-(5-(3-fluoropyrrolidin-1-yl)pentyl)-1H-pyrazolo[4,3-d]pyrimidin-7-amine], the EC50 in experiment [1] is not above 1260 nM; in experiment [2] it was not below 3980 nM.
In the case of `CCCCc1nc(N)c2[nH]nc(CCCCCCN3CC[C@@H](F)C3)c2n1` [Example 13, (R)-5-Butyl-3-(6-(3-fluoropyrrolidin-1-yl)hexyl)-1H-pyrazolo[4,3-d]pyrimidin-7-amine formate], the EC50 in experiment [1] is not above 1260 nM; in experiment [2] it was not below 3980 nM.
In the case of `CCCCc1nc(N)c2[nH]nc(CCCCCN3CC[C@@H](F)C3)c2n1` [Example 14, (R)-5-Butyl-3-(5-(3-fluoropyrrolidin-1-yl)pentyl)-1H-pyrazolo[4,3-d]pyrimidin-7-amine], the values for the EC50 in experiment [1] and in experiment [2] were not above 1260 nM and not below 3980 nM, respectively.
Take `CCCCc1nc(N)c2[nH]nc(CCCCCCN3CCC(O)CC3)c2n1` [Example 15, 1-(6-(7-Amino-5-butyl-1H-pyrazolo[4,3-d]pyrimidin-3-yl)hexyl)piperidin-4-01]: the results for the EC50 in experiment [1] and in experiment [2] were not above 1260 nM and not below 3980 nM, respectively.
For the molecule `CCCCc1nc(N)c2[nH]nc(CCCCCN3CCC(O)CC3)c2n1` [Example 16, 1-(5-(7-Amino-5-butyl-1H-pyrazolo[4,3-d]pyrimidin-3-yl)pentyl)piperidin-4-01], the EC50 in experiment [1] was not above 1260 nM; in experiment [2], not below 3980 nM.
For `CCCCc1nc(N)c2[nH]nc(CCCCCCN3CCC(F)CC3)c2n1` [Example 17, 5-Butyl-3-(6-(4-fluoropiperidin-1-yl)hexyl)-1H-pyrazolo[4,3-d]pyrimidin-7-amine formate], the EC50 in experiment [1] is not above 1260 nM; in experiment [2], not below 3980 nM.
With `CCCCc1nc(N)c2[nH]nc(CCCCCN3CCC(F)CC3)c2n1` [Example 18, 5-Butyl-3-(5-(4-fluoropiperidin-1-yl)pentyl)-1H-pyrazolo[4,3-d]pyrimidin-7-amine], the EC50 in experiment [1] was not above 1260 nM; in experiment [2] it was not below 3980 nM.
